Consider 9 compounds from ChEMBL document CHEMBL4428113, “Antitubercular and cytotoxic tigliane-type diterpenoids from Croton tiglium” (Bioorg Med Chem Lett, 2016).

The subject of assay [1] is Mycobacterium tuberculosis. Put plainly: Antitubercular activity against Mycobacterium tuberculosis H37Ra incubated for 7 days by Alamar blue dye-based fluorometric assay. The following applies: 168 h. The class given is functional, organism-based. On the technique in general: Alamar Blue is a resazurin reagent that responds to reducing activity.
A further assay has as its system A549. Put plainly: Cytotoxicity against human A549 cells after 72 hrs by CCK8 assay. The class given is functional, cell-based. The following applies: A549, 72 h. A general note: Tetrazolium assays rely on reduction of a dye to a coloured formazan, in cell work by metabolically active cells.
The subject of a further assay is Huh-7. Kind of assay: Cytotoxicity against human HuH7 cells after 72 hrs by CCK8 assay. Type of assay: functional, cell-based. The settings on record: Huh-7, 72 h.
In another assay the test system is K562. Put plainly: Cytotoxicity against human K562 cells after 72 hrs by CCK8 assay. Type of assay: functional, cell-based. The following applies: K562, 72 h.

SMILES strings stand for the structures.

Broadly, the IC50 is the concentration at which inhibition is half-maximal. Low readings indicate greater potency, high ones weaker potency. As to `NNC(=O)c1ccncc1` [ISONIAZID], 2.04 µM corresponded to half-maximal inhibition in assay [1] (IC50).

With `CC(=O)O[C@H]1C(=O)[C@@]2(C)[C@H]([C@H](OC(=O)c3ccccc3)[C@]3(O)C[C@H](OC(=O)[C@H](O)[C@@H](NC(=O)c4ccccc4)c4ccccc4)C(C)=C1C3(C)C)[C@]1(OC(C)=O)CO[C@@H]1C[C@@H]2O` [PACLITAXEL], the IC50 came to 1.92 µM with A549, 6.75 µM in the assay with Huh-7 and 3.21 µM with K562.

Turning to `CCC(C)C(=O)O[C@@]12[C@H](O)[C@@H](C)[C@@]3(O)[C@@H](C=C(CO)C[C@]4(O)C(=O)C(C)=C[C@@H]34)[C@@H]1C2(C)C` (some centres not stated), the IC50 in the assay on A549 is 43.5 µM; in assay [1], more than 30 µM; with Huh-7 it was 34.2 µM; with K562 it was 0.05 µM.

`C/C=C(\C)C(=O)O[C@@H]1[C@@H](C)[C@]2(O)[C@@H]3C=C(C)C(=O)[C@@H]3CC(C=O)=C[C@H]2[C@@H]2C(C)(C)[C@]12OC(C)=O`: the IC50 in the assay on A549 was determined as 6.88 µM; in assay [1], 19.5 µM; in the assay on Huh-7 it was 3.85 µM; in the assay with K562, 0.03 µM.

Regarding `C/C=C(\C)C(=O)O[C@@H]1[C@@H](C)[C@@]2(O)[C@@H](C(=O)C(CO)=C[C@]3(O)C(=O)C(C)=C[C@@H]23)[C@@H]2C(C)(C)[C@]12OC(=O)C(C)C`, the 50% inhibitory concentration (IC50) in the assay on A549 came to 3.11 µM; in assay [1], 13.4 µM; in the assay with Huh-7, 4.41 µM; in the assay with K562, 0.05 µM.

`C/C=C(\C)C(=O)O[C@@H]1[C@@H](C)[C@]2(O)[C@@H]3C=C(C)C(=O)[C@@H]3CC(CO)=C[C@H]2[C@@H]2C(C)(C)[C@]12OC(C)=O`: the IC50 in the assay with A549 was found to be 8.5 µM; in assay [1] it was 20.5 µM; with Huh-7, 3.36 µM; in the assay with K562 it was 0.07 µM.

As to `CC1=C[C@H]2[C@@]3(O)[C@H](C)[C@@H](O)[C@]4(O)[C@H]([C@@H]3C=C(CO)C[C@]2(O)C1=O)C4(C)C` [PHORBOL], the IC50 in the assay with A549 is 15.3 µM; in assay [1], more than 30 µM; in the assay with Huh-7, 5.93 µM; in the assay on K562, 0.1 µM.

For `CCC(C)C(=O)O[C@@]12[C@H](O)[C@@H](C)[C@@]3(O)[C@H]([C@@H]1C2(C)C)[C@@H](O)C(CO)=C[C@]1(O)C(=O)C(C)=C[C@@H]31` (some centres not stated), the IC50 in the assay with A549 was 8.86 µM; in assay [1], more than 30 µM; with Huh-7, 11.6 µM; with K562, 0.07 µM.

Regarding `CCC(C)C(=O)O[C@@]12[C@H](O)[C@@H](C)[C@@]3(O)[C@@H](C(=O)C(CO)=C[C@]4(O)C(=O)C(C)=C[C@@H]34)[C@@H]1C2(C)C` (some centres not stated), the IC50 in the assay on A549 was found to be 6.33 µM; in assay [1] it was 20.9 µM; in the assay with Huh-7 it was 20.9 µM; in the assay with K562, 0.03 µM.
